For five compounds, TGI results are on record in PubChem BioAssay (NCI).

The assay relates to DMS 114 small cell lung. In words: DTP human tumour cell line panel, 48 h.

Usually TGI stands for the concentration at which net growth stops. A high value points to lower sensitivity of the cells.

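Cultured in 96-well plates, cells were exposed to test compound for 48 hours across five concentrations. TGI denotes the concentration required for complete inhibition of growth.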

Consider `CC(C)OP(=O)(OC(C)C)/C(Cl)=N/Nc1ccc([N+](=O)[O-])cc1`, for which the total growth inhibition concentration (TGI) is above 100 µM.

Turning to `COC(=O)CC(NC(=O)OCc1ccccc1)C(C(C)=O)C(=O)OCc1ccccc1` (stereo not given), the TGI is above 31.6 µM.

The compound `CCN(CC)c1cccc2c1/C(=N/O)CCCC2` registered a total growth inhibition concentration (TGI) above 100 µM.

Compound `COP(=O)(OC)C(=O)N1N(c2ccc([N+](=O)[O-])cc2)C(=O)C(C)NC1(NNc1ccc([N+](=O)[O-])cc1)P(=O)(OC)OC` (stereo not given) yielded a TGI above 100 µM.

Consider `Nc1nc2c3nc(Nc4ccccc4)sc3nc(=S)n2c2sc(Nc3ccccc3)nc12`, for which the TGI was above 100 µM.
